What is called pKd is −log10 of the Kd, conventionally taken in molar units. A high value points to a small Kd.

pKd: −log10 of the molar value.

The target in the experiment is Carbonic anhydrase 2 (Bos taurus, UniProt P00921). Briefly: Binding affinity to bovine CA2 by typical isothermal titration calorimetry.
Chain of Carbonic anhydrase 2 (P00921 whole entry): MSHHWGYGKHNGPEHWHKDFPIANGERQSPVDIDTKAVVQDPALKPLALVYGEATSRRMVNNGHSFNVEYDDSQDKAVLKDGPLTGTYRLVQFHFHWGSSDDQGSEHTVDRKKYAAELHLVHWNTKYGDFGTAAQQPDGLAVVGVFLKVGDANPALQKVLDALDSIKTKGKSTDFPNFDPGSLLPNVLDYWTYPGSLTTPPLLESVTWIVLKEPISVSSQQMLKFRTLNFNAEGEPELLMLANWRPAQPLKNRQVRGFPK
Regarding `NS(=O)(=O)c1ccc2nc3n(c2c1)N=S=C3Sc1ccccc1`, the negative logarithm of the Kd (pKd) is 6.55.

The molecule `CS(=O)(=O)C1=S=Nn2c1nc1ccc(S(N)(=O)=O)cc12` gave a pKd of 6.30.

The molecule `NS(=O)(=O)c1ccc2nc3n(c2c1)N=S=C3N1CCOCC1` showed a pKd of 7.42. This pKd lies 1.12 log units higher than the previous one.

As to `NS(=O)(=O)c1ccc2nc3n(c2c1)N=S=C3Cl`, the pKd was 6.85.

On to `CSC1=S=Nn2c1nc1ccc(S(N)(=O)=O)cc12`, for which the pKd was 6.49.

`CN1CCN(C2=S=Nn3c2nc2ccc(S(N)(=O)=O)cc23)CC1` gave a negative-log Kd (pKd) of 6.41.

In turn, `NS(=O)(=O)c1ccc2nc3n(c2c1)N=S=C3` showed a negative-log Kd (pKd) of 6.54.

Source of the values: ChEMBL document CHEMBL1148006, “Benzimidazo[1,2-c][1,2,3]thiadiazole-7-sulfonamides as inhibitors of carbonic anhydrase” (Bioorg Med Chem Lett, 2007).
